Results taken from ChEMBL document CHEMBL1201862, “PubChem BioAssay data set” (2004).
Activity calls are given as the source filed them.

Legend:
[1] = HepG2 cell cytotoxicity, dose response, cytotoxicity control, plate reader, cherry-pick, antagonist series (AID 743416); type: functional, cell-based
[2] = LGR2 antagonists, dose response, cell-based, HEK293, CRE-luciferase reporter, cherry pick, set 2 (AID 743343); type: functional;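 note: transfected cells were stimulated with diluted bursicon conditioned medium after compound addition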
[3] = MC4R antagonists, dose response, counter-screen for LGR2 antagonist project, cell-based, plate reader, cherry pick (AID 743444); type: functional;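 note: transfected HEK 293 cells stimulated with alpha-MSH peptide; potency of inhibitors of the alpha-MSH evoked signal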
[4] = HeLa cell cytotoxicity, dose response, cytotoxicity control for MgcRacGAP inhibitor project (AID 624300); type: functional
[5] = biological target: T1, Rac GTPase-activating protein 1 (Homo sapiens, UniProt Q9H0H5); test: MgcRacGAP GTPase-activating activity inhibitors, confirmation, biochemical, ADP Hunter fluorescence, primary and confirmatory (AID 624330); type: functional
T1 sequence (Q9H0H5 whole entry): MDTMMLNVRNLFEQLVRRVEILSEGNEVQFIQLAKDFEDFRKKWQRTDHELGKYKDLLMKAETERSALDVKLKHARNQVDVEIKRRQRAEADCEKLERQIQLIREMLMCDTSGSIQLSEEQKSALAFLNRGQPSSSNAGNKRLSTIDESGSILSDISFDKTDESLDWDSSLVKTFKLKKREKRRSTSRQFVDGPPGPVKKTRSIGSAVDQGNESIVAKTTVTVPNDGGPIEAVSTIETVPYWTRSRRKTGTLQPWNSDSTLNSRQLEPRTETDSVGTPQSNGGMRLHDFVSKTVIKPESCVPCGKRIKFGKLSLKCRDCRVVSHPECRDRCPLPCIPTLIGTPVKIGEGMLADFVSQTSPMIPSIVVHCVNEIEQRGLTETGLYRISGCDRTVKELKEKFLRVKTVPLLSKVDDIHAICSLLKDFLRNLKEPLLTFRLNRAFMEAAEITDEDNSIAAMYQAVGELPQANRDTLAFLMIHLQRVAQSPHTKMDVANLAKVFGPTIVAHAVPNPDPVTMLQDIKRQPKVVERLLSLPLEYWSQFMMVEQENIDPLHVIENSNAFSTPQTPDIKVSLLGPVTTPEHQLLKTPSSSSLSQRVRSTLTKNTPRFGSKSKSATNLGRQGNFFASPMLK

[6] = biological target: E3 ubiquitin-protein ligase Mdm2 (Homo sapiens, UniProt Q00987); test: enhancers of MDM2-luciferase reporter signal, concentration-effect titration, project on inhibitors of MDM2 ubiquitin ligase, cellular assay, luminescent readout, 384-well plate format (AID 1394); type: functional;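 note: MDM2 E3 inhibitors raise luminescence so EC50 is for signal enhancement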
[7] = biological target: Mitogen-activated protein kinase 10 (Homo sapiens, UniProt P53779); test: Dose response biochemical screening assay for inhibitors of c-Jun N-Terminal Kinase 3 (JNK3). [Related pubchem assays: 746 ]
[8] = inhibitors of PGC1a acetylation in cells, dose response, cell-based, cherry-picked samples (AID 720514); type: functional;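 note: potency may reflect raised or lowered acetylation signal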
[9] = NIH-3T3 fibroblast cytotoxicity, dose response, cytotoxicity control, cell-based, fluorescence, Alamar Blue, secondary assay (AID 2327); type: functional;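 note: NIH-3T3 mouse fibroblasts cultured with fluconazole at 8 µg/mL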
[10] = biological target: T2, Heat shock factor protein 1 (Mus musculus, UniProt P38532); test: inhibition of MG132-induced HSE-luciferase signal, confirmation, cell-based, NIH3T3, luminescence, dose retest (AID 2382); type: functional;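 note: NIH3T3 fibroblasts with HSF1-driven luciferase reporter stressed by proteasome inhibitor MG132; luminescence from HSF1-driven luciferase expression after 8 hours of MG132 stress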
T2 sequence (P38532 whole entry): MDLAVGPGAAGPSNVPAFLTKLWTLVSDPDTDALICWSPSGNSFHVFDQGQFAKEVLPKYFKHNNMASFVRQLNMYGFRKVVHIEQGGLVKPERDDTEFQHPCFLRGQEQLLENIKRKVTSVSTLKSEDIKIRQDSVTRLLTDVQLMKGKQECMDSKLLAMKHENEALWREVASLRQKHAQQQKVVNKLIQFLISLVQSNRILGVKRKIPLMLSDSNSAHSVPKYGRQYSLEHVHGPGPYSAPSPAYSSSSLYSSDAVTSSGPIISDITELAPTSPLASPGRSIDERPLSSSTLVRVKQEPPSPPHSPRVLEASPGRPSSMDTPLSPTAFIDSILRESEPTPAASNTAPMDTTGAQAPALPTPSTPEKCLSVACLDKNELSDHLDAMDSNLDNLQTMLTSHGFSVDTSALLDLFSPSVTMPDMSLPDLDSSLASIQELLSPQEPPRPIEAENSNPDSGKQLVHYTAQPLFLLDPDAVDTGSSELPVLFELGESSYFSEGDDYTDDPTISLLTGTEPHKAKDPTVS

[11] = C. albicans growth with fluconazole, confirmation, fluorescence, retest (AID 2467); type: functional, cell-based
[12] = inhibitors of intracellular T. cruzi replication, confirmation, NIH3T3 host cells, beta-gal luminescence (AID 2044); type: functional, cell-based;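 note: intracellular parasites grown in NIH/3T3 mouse fibroblasts as host cells; luminescent beta-galactosidase reporter signal from transgenic T. cruzi replicating inside host cells; inhibitors lower the luminescence signal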
[13] = cytotoxicity toward NIH3T3 fibroblasts, dose response, counter-screen, cell-based, ATP luminescence, mouse fibroblasts (AID 2010); type: functional;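 note: cells exposed to compound for about 90 hours before reading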
[14] = biological target: T3, Replicative DNA helicase DnaB (Mycobacterium tuberculosis, UniProt P9WMR3); test: DnaB intein splicing inhibitors, dose response, biochemical, cell-free fluorescence (AID 449749); type: functional
T3 sequence (P9WMR3 whole entry): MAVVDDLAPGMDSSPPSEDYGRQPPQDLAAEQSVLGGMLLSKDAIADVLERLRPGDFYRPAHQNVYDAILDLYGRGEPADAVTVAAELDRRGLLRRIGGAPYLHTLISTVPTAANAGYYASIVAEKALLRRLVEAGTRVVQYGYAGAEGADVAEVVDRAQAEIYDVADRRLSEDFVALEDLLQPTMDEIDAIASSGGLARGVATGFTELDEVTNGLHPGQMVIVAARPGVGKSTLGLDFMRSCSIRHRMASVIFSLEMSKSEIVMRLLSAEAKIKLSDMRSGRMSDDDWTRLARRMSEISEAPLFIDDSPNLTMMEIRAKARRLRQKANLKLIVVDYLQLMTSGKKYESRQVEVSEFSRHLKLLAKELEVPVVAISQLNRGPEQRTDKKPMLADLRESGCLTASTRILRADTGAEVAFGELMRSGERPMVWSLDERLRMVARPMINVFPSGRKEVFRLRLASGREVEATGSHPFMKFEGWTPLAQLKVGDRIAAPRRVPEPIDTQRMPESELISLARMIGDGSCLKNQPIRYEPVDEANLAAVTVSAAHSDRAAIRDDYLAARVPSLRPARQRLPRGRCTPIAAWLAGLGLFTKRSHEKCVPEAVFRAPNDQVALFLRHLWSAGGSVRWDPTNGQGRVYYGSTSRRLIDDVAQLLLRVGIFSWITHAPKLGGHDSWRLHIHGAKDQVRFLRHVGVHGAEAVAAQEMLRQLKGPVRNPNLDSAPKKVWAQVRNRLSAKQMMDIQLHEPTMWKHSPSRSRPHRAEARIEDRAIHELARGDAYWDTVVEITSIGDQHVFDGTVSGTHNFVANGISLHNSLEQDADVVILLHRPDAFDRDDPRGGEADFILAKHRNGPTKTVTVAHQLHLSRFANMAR

Protein RecA = biological target: T4, Protein RecA (Mycobacterium tuberculosis, UniProt P9WHJ3); test: Fluorescence Cell-Free Homogeneous Dose Retest to Identify Inhibitors of RecA-Intein Splicing Activity. [Related pubchem assays (depositor defined):AID2097, AID2223, AID489010, AID492950]; type: functional
T4 sequence (P9WHJ3 whole entry): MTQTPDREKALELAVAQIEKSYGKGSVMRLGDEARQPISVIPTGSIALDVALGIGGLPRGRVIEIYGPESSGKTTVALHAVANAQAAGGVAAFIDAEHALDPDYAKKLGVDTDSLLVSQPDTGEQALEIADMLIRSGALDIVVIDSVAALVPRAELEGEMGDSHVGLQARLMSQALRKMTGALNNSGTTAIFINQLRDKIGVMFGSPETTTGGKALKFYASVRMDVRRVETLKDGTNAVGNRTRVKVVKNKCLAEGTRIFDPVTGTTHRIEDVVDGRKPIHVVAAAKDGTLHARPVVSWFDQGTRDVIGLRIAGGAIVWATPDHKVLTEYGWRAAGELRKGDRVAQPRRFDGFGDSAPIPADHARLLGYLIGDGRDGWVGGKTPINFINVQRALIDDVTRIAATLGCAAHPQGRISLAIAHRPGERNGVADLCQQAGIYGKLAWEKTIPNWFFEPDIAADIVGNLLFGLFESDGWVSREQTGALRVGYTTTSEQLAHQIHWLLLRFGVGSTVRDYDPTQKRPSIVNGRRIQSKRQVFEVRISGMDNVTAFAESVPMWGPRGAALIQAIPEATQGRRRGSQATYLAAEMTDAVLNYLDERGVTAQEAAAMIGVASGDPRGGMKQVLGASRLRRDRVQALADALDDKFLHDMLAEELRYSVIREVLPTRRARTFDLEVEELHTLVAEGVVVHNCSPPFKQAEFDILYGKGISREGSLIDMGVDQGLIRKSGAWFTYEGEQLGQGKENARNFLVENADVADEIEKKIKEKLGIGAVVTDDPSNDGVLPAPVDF

[15] = Fluorescence-based cell-based high throughput dose response assay for inhibitors of the interaction of nucleotide-binding oligomerization domain containing 2 (NOD2) and the receptor-interacting serine-threonine kinase 2 (RIPK2).; type: functional; conditions: Homo sapiens
Paired box protein Pax-8 = Paired box protein Pax-8 (Homo sapiens, UniProt Q06710); test: inhibitors of PAX8-driven TPO luciferase reporter, dose response, RMG-I cells, cherry-pick (AID 687027); type: functional, cell-based;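 note: luciferase reporter driven by Pax8 target thyroperoxidase promoter measured by SteadyGlo luminescence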
[16] = A2780 ovarian cancer cell cytotoxicity, dose response, cytotoxicity control, plate reader, dry powder samples (AID 743046); type: functional, cell-based
[17] = NIH:OVCAR-3 ovarian cancer cell cytotoxicity, dose response, PAX8 inhibitor project, plate reader, dry powder samples (AID 743044); type: functional, cell-based
[18] = cytotoxicity in OVCAR8 ovarian cancer cells, dose response, PAX8 project, cell-based, plate reader, dry powder samples (AID 743197); type: functional; conditions: OVCAR-8
[19] = P. falciparum 3D7-ScDHODH growth inhibitors, dose response, SYBR Green, dry powder samples (AID 1159570); type: functional, cell-based;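 note: parasite growth measured after 72 hours of compound exposure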
[20] = HepG2 cell cytotoxicity, dose response, cytotoxicity control, plate reader, dry powder samples (AID 1159569); type: functional, cell-based;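 note: inhibitor potency with signal falling toward the positive control level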
[21] = P. falciparum Dd2 growth inhibitors, dose response, SYBR Green, cherry-picked samples (AID 1159567); type: functional, cell-based
[22] = P. falciparum Dd2 growth inhibitors, dose response, SYBR Green, dry powder samples (AID 1159566); type: functional, cell-based;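 note: potency for growth inhibition with lower SYBR green DNA signal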
[23] = P. falciparum ATP4 D1247Y mutant growth inhibitors, dose response, NITD609-resistant line, SYBR Green, dry powder (AID 1159571); type: functional, cell-based;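 note: parasites synchronized at ring stage by sorbitol before testing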

Chain of Paired box protein Pax-8 (Q06710 whole entry): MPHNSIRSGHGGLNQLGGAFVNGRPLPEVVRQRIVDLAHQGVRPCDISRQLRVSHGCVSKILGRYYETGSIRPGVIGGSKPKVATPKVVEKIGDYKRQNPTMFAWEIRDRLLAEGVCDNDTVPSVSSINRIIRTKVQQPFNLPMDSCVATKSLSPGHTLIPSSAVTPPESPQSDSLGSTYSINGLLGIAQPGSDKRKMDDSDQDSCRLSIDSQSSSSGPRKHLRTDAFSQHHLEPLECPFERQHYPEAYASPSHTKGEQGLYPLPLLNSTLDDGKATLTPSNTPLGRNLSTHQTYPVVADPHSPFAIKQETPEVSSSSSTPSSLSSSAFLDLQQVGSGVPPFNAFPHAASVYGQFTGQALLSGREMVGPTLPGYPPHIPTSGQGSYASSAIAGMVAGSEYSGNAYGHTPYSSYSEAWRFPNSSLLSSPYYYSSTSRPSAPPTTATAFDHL
Chain of Mitogen-activated protein kinase 10 (P53779 whole entry): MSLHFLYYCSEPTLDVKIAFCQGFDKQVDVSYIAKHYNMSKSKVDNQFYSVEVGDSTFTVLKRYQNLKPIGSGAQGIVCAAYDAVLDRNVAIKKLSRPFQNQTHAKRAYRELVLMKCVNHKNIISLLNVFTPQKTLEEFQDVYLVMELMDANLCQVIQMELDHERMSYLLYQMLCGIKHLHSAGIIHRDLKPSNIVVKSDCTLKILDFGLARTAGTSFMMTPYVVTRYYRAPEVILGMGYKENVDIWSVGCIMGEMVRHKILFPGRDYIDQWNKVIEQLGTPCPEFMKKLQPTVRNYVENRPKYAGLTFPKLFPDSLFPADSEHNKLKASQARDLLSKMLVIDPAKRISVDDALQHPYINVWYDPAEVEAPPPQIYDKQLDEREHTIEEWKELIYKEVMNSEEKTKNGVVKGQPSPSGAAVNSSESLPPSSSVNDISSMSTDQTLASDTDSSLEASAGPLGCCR
Chain of E3 ubiquitin-protein ligase Mdm2 (Q00987 whole entry): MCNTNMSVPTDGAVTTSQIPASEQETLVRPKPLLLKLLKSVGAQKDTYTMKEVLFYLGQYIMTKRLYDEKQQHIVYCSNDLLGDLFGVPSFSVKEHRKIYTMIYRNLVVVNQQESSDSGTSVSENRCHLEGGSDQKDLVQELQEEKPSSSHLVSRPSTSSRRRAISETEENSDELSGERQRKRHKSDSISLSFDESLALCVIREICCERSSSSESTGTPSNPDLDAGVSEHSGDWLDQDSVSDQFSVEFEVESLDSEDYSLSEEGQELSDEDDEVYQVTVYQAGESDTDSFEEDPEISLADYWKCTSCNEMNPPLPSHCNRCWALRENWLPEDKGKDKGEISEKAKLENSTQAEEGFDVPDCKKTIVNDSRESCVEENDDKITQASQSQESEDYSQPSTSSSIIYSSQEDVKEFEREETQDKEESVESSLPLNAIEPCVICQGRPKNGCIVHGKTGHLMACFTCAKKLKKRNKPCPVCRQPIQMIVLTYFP

Cc1ccc(-c2csc(Nc3ccccn3)n2)cc1
AC50 [1]: > 52 µM (inactive)
AC50 [2]: 2.74 µM (active)
AC50 [3]: 3.3 µM (active)

CCCc1cc(S)n2c(nc3ccccc32)c1C#N
CC50 [4]: 100 µM (active)
IC50 [5]: 52.2 µM (active)

Cc1ccc(C(=O)NN2C(=O)/C(=C/c3cccn3C)SC2=S)cc1
EC50 [6]: 0.09 µM (not active)

CCOc1ccc(C2CC(=O)NC3=C2C(=O)CCC3)cc1 (configuration not stated)
IC50 [7]: > 93.1 µM (not active)

O=C(c1ccc(F)cc1)N(C(=O)c1ccc(F)cc1)c1ncccn1
AC50 [8]: 25.9 µM (active)

CC(C)=C1SC(N2CCN(c3cccc(C(F)(F)F)c3)CC2)=NC1=O
EC50 [6]: 18.7 µM (not active)

Cc1ccc(-n2ncc(Br)c(Br)c2=O)cc1
EC50 [9]: 2.27 µM (inconclusive)
EC50 [10]: 5.57 µM (active)
EC50 [11]: 0.443 µM (active)
EC50 [12]: 2.23 µM (active)
EC50 [13]: 1.97 µM (active)
AC50 [14]: 20.9 µM (active)
EC50 (Protein RecA): 4.75 µM (active)
IC50 [15]: 3.25 µM (active)

CC(=O)N1CCN(c2ccc(Nc3ncnc4c3oc3ccccc34)cc2)CC1
CC50 [4]: 58.3 µM (active)
IC50 [5]: 46 µM (active)

CCCN1Cc2cccc(C(=O)NCc3ccc4c(c3)OCO4)c2C1=O
IC50 [7]: 31.8 µM (not active)

COc1ccc(S(=O)(=O)Nc2ccc3c(c2)C(=O)N([C@@H](C)CO)C[C@H](C)[C@@H](CN(C)Cc2ccc(C(F)(F)F)cc2)OCCCC[C@@H](C)O3)cc1
AC50 (Paired box protein Pax-8): 9.62 µM (active)
AC50 [16]: 56.2 µM (active)
AC50 [17]: 23 µM (active)
AC50 [18]: 23.6 µM (active)

C[C@H]1CCCCO[C@@H](CN(C)Cc2ccc(Cl)c(Cl)c2)[C@@H](C)CN([C@@H](C)CO)C(=O)c2cc(NC(=O)Nc3ccc(C(F)(F)F)cc3)ccc2O1
AC50 (Paired box protein Pax-8): 4.77 µM (active)
AC50 [16]: 59.1 µM (active)
AC50 [17]: 22.2 µM (active)
AC50 [18]: > 70 µM (inactive)

C[C@@H]1CN([C@H](C)CO)C(=O)c2cc(NC(=O)CCCCCC(=O)Nc3ccccc3N)ccc2O[C@@H](C)CCCCO[C@H]1CN(C)Cc1ccc(Cl)c(Cl)c1
AC50 (Paired box protein Pax-8): 12.2 µM (active)
AC50 [18]: 65.4 µM (active)

C[C@@H]1CCCCO[C@@H](CN(C)C(=O)c2ccccc2)[C@H](C)CN([C@H](C)CO)C(=O)c2cc(NC(=O)Nc3ccc(C(F)(F)F)cc3)ccc2O1
AC50 (Paired box protein Pax-8): 3.53 µM (active)
AC50 [17]: 36.5 µM (active)
AC50 [18]: > 70 µM (inactive)

Cc1ccc(-c2ccc([C@H]3[C@@H](CO)N4CCCCN(C(=O)Nc5cccc(F)c5)C[C@H]34)cc2)cc1
AC50 (Paired box protein Pax-8): 21.7 µM (active)
AC50 [16]: 39.1 µM (active)
AC50 [17]: 37.5 µM (active)

C/C(=N\CCCn1ccnc1)C1=C(O)c2ccccc2C1=O
IC50 [7]: 35.7 µM (not active)

COc1ccc2c3c(n(C)c2c1)[C@H](CO)N(C(=O)Nc1ccc(F)cc1)CC31CCN(Cc2cccnc2)CC1
AC50 [19]: 1.52 µM (active)
AC50 [20]: > 100 µM (inactive)
AC50 [21]: 3.02 µM (active)
AC50 [22]: 1.61 µM (active)
AC50 [23]: 2.03 µM (active)

CN(C)C(=O)c1ccc(-c2ccc([C@@H]3[C@@H]4CN(Cc5ccc6c(c5)OCO6)C[C@H]3N4)cc2)cc1
AC50 [19]: 4.61 µM (active)
AC50 [20]: 22.6 µM (active)
AC50 [21]: 1.13 µM (active)
AC50 [22]: 2.25 µM (active)
AC50 [23]: 2.58 µM (active)
